From publication PMC4895043, “Biological Activities of Aerial Parts Extracts of Euphorbia characias” (BioMed Research International, 2016) come the findings set out here.

In this assay the target is T1, HIV-1 RT (HIV-1 M:B_HXB2R, UniProt P04585).
T1 construct: gene gag-pol; mature RT cut from Gag-Pol polyprotein
Put plainly: RNase H inhibition assay. It is filed as biochemical. Particulars: RNase H activity; read-out: IC50 (μg/mL)^∗ / HIV-1 / RNase H. From the text:
RNase H inhibition assay on HIV-1 RT

In the case of RDS1759, the IC50 is 7.1 ± 0.5 µM.
